Results published in patent US20110015410A1, “NOVEL USE OF SCOPARONE” (Kyungpook National University Industry Academic Cooperation …, priority 2007, published 2011).

Columns and labels:
[1] = high-cholesterol rabbit model; cited from earlier work
AP-1 = assay: DNA-binding activity of AP-1 (electrophoretic mobility shift assay); assay type: cell-based, Sprague-Dawley white rats; conditions: 10 ng TNF-α; scoparone 0, 10, 20, 50 and 100 μM; 24 hours; EMSA
Description: (§1) Proteins such as cell cycle regulatory proteins or chemokine are regulated by the respective transcription factors. Accordingly, the DNA-binding activities of AP-1 that is a transcription factor regulating the expression of cell cycle regulatory proteins, and NF-κB that is a transcription factor regulating the expression of chemokine were analyzed using an electrophoretic mobility shift assay (EMSA).
(§2) Vascular smooth muscle cells were cultured in 0.5% FBS-containing medium for 24 hours. The cultured cells were divided into a control group treated with neither scoparone nor tumor necrosis factor (TNF-α, and five test groups which were treated with media containing 10 ng of tumor necrosis factor (TNF-α) for 24 hours at scoparone concentrations of 0 μM, 10 μM, 20 μM, 50 μM and 100 μM, respectively. Nuclear extracts were isolated from the vascular smooth muscle cells and labeled with radioisotope-labeled probes for AP-1 and NF-κB. Then, the labeled extracts were subjected to a protein-DNA reaction at room temperature for 20 minutes. After completion of the reaction, each sample was loaded on a 4% native polyarylamide gel and electrophoresed at 150 volt for 2 hours, followed by analysis.

[2] = test system: human peripheral monocytes; conditions: cited from earlier work
p21 = assay: Expression of p21 in vascular smooth muscle cells (Western blot); assay type: cell-based, Sprague-Dawley white rats
Description: (§3) Cultured vascular muscle cells were plated in a 60-mm tissue culture dish at a confluence of about 80-90%, and then cultured in 0.5% FBS containing medium for 24 hours to allow the cells to enter the stationary phase. The cultured cells were divided into a control group not treated with scoparone, and five test groups which were treated with 50 μg of scoparone for 2 hr, 4 hr, 6 hr, 12 hr and 24 hr, respectively. From each of the groups, the total protein was isolated using RIPA buffer. Each of the isolated total proteins was boiled in buffer for 5 minutes, and then cooled on ice. Then, each total protein was separated according to size by electrophoresis on sodium dodecyl sulfate polyacrylamide gel. Then, each total protein was transferred to a PVDF membrane which was then allowed to react with antibodies for p53, p27, p21 and Cyclin D to examine the expression of the proteins.

Erk = assay: Phosphorylation of Erk in vascular smooth muscle cells (Western blot); assay type: cell-based, Sprague-Dawley white rats; conditions: 50 μg of scoparone for 15, 30, 45, 60 and 90 min
Description: (§4) In order to examine the signaling pathway of scoparone, the phosphorylation of JNK and Erk was examined.
(§5) Cultured vascular smooth muscle cells were plated in a 60-mm tissue culture dish at a confluence of 80-90%, and then cultured in 0.5% FBS-containing medium for 24 hours to allow the cells to enter the stationary phase. The cultured cells were divided into a control group not treated with scoparone, and five test groups which were treated with 50 μg of scoparone for 15 min, 30 min, 45 min, 60 min and 90 min, respectively. From each of the groups, the total protein was isolated using RIPA buffer. Each of the isolated total proteins was boiled in buffer for 5 minutes, and then cooled on ice. Then, each total protein was separated according to size by electrophoresis on sodium dodecyl sulfate polyacrylamide gel. Then, each total protein was transferred to a PVDF membrane which was then allowed to react with antibodies for pJNK, JNK, pErk and Erk to examine the expression and phosphorylation of the proteins.

[3] = test system: neointima formation in carotid artery; assay: Formation of neointima after balloon dilatation (carotid artery, H&E staining); assay type: in vivo, Sprague-Dawley white rats; conditions: high-fat diet containing 10 mg/kg or 100 mg/kg of scoparone; 2 weeks after balloon dilatation; vs negative control group
Description: In order to examine whether scoparone inhibits the formation of neointima after balloon dilatation, an experiment was performed using Sprague-Dawley white rats fed with scoparone-containing feed.
As test subjects, male Sprague-Dawley white rats weighing about 300 g were used. The rats were grouped into a normal control group, a negative control group fed only with a high-fat diet (20% fat and 0.05% cholesterol) and a test group fed with a high-fat diet containing 10 mg/kg or 100 mg/kg of scoparone, each group consisting of 4 animals, and were kept at 22° C. under a 12-hr light/12-hr dark cycle. The negative control group and the test group were fed with the above-described diets from 3 days before performing balloon dilatation and were fed with the diets during 2 weeks after balloon dilatation. After 2 weeks, the carotid artery was isolated from the rats and stained with H&E (hematoxylin & eosin) in order to observe the formation of neointima. FIG. 2 is a micrograph (×100) showing the cross-section of the carotid artery of the rats 2 weeks after balloon dilatation.

AMPK = assay: Phosphorylation of AMPK in vascular smooth muscle cells (Western blot); assay type: cell-based, Sprague-Dawley white rats; conditions: 50 μg of scoparone for 1, 2, 4, 6 and 12 hr
Description: (§6) Cultured vascular smooth muscle cells were plated in a 60-mm tissue culture dish at a confluence of about 80-90%, and then cultured in 0.5% FBS-containing medium for 24 hours to allow the cells to enter the stationary phase. The cultured cells were divided into a control group not treated with scoparone, and five test groups which were treated with 50 μg of scoparone for 1 hr, 2 hr, 4 hr, 6 hr and 12 hr, respectively. From each of the groups, the total protein was isolated using RIPA buffer. Each of the isolated total proteins was boiled in buffer for 5 minutes, and then cooled on ice. Then, each total protein was separated according to size by electrophoresis on sodium dodecyl sulfate polyacrylamide. Then, each total protein was transferred to a PVDF membrane which was then allowed to react with monoclonal antibodies for pACC, pAMPK and AMPK to examine the expression and phosphorylation of the proteins.

cyclin D = assay: Expression of cyclin D in vascular smooth muscle cells (Western blot); assay type: cell-based, Sprague-Dawley white rats; conditions: 50 μg of scoparone for 2, 4, 6, 12 and 24 hr
Description: as §3

JNK = assay: Phosphorylation of JNK in vascular smooth muscle cells (Western blot); assay type: cell-based, Sprague-Dawley white rats; conditions: 50 μg of scoparone for 15, 30, 45, 60 and 90 min
Description: as §4, §5

VCAM-1 = assay: Expression of VCAM-1 in vascular smooth muscle cells (Western blot); assay type: cell-based, Sprague-Dawley white rats; conditions: TNF-α-containing media; scoparone 0, 10, 20, 50 and 100 μM; 24 hours
Description: Cultured vascular smooth muscle cells were plated in a 60-mm tissue culture dish at a confluence of about 80-90%, and then cultured in 0.5% FBS-containing medium for 24 hours to allow the cells to enter the stationary phase. The cultured cells were divided into a control group treated with neither scoparone nor tumor necrosis factor (TNF-α, and five test groups which were treated with scoparone in tumor necrosis factor (TNF-α)-containing media for 24 hours at scoparone concentrations of 0 μM, 10 μM, 20 μM, 50 μM and 100 μM, respectively. In addition, the cells were divided into five groups which were treated with 50 μg of scoparone for 15 min, 30 min, 45 min, 60 min and 90 min, respectively. From each of the groups, the total protein was isolated using RIPA buffer. Each of the isolated total protein was boiled in buffer for 5 minutes, and then cooled on ice. Then, each total protein was separated according to size by electrophoresis on sodium dodecyl sulfate polyacrylamide gel. Then, each total protein was transferred to a PVDF membrane which was then allowed to react with antibodies for VCAM and PAI-1 to examine the expression of the proteins. The membrane was further allowed to react with anti-actin antibody to examine whether the antibody uses a given amount of the proteins.

ACC = assay: Phosphorylation of ACC in vascular smooth muscle cells (Western blot); assay type: cell-based, Sprague-Dawley white rats; conditions: 50 μg of scoparone for 1, 2, 4, 6 and 12 hr
Description: as §6

ROS = ROS production in vascular smooth muscle cells (DCF-DA fluorescence microscopy); assay type: cell-based, Sprague-Dawley white rats; conditions: TNF-α-containing media, scoparone 100 μM and 200 μM, 1 hour
Description: When vascular smooth muscle cells were grown to a confluence of about 90% in a 6-well cell culture dish, the cells were cultured in 0.5% FBS DMEM medium for 24 hours. The cultured cells were divided into a control group treated with neither tumor necrosis factor (TNF-α nor scoparone, and three test groups which were treated with scoparone in tumor necrosis factor (TNF-α)-containing media at scoparone concentrations of 0 μM, 100 μM and 200 μM, respectively. The cells of each group were incubated for 1 hour, and then 40 μmol/L of 2′,7′-dichlorofluorecin diacetate (DCF-DA; Invitrogen), a fluorescent probe sensitive to ROS, was added thereto, and the cells were incubated for 30 minutes. The production of ROS in the cells was analyzed using an AxioCam MRc5 Carl Zeiss fluorescence microscope (Thornwood, N.Y.) which was excited at a 488-nm wavelength and emitted at 515-nm wavelength.

p53 = assay: Expression of p53 in vascular smooth muscle cells (Western blot); assay type: cell-based, Sprague-Dawley white rats
Description: as §3

NF-κB = assay: DNA-binding activity of NF-κB (electrophoretic mobility shift assay); assay type: cell-based, Sprague-Dawley white rats; conditions: 10 ng TNF-α; scoparone 0, 10, 20, 50 and 100 μM; 24 hours; EMSA
Description: as §1, §2

p27 = assay: Expression of p27 in vascular smooth muscle cells (Western blot); assay type: cell-based, Sprague-Dawley white rats
Description: as §3

[4] = test system: vascular smooth muscle cells; assay: Inhibition of proliferation of vascular smooth muscle cells (WST cell counting); assay type: cell-based, Sprague-Dawley white rats; conditions: scoparone 0, 5, 10, 20 or 50 μM, 48 hours, absorbance at 450 nm
Description: Vascular smooth muscle cells were isolated from the thoracic aorta of Sprague-Dawley white rats and cultured in a medium containing 20% fetal bovine serum.
The specificity of vascular smooth muscle cells was confirmed by staining the cells with α-actin monoclonal antibody (Sigma, St Louis, Mo., USA). In this experiment, vascular smooth muscle cells subcultured 5-6 times were used. The cultured vascular smooth muscle cells were plated in a 60-mm tissue culture dish at a confluence of about 80-90%, and then cultured in 0.5% FBS DMEM medium for 24 hours to allow the cells to enter the stationary phase.
The primarily cultured vascular smooth muscle cells were cultured in a 96-well culture dish, and when the cells reached a confluence of 40%, the medium was replaced with 0.5% FBS-containing medium, and the cells were cultured for 24 hours to allow the cells to enter the stationary phase.

[5] = test system: vascular smooth muscle cells; assay: Proliferation of vascular smooth muscle cells on treatment with the AMPK inhibitor CompC; assay type: cell-based, Sprague-Dawley white rats; conditions: cells treated with CompC, described as an AMPK inhibitor
[6] = 50 μg of scoparone for 2, 4, 6, 12 and 24 hr

COc1cc2ccc(=O)oc2cc1OC [scoparone, 6,7-dimethoxycoumarin]
cholesterol levels [1]: lowered | triglyceride levels [1]: lowered | DNA binding activity of AP-1 (AP-1): concentration-dependently decreased | growth of human peripheral monocytes [2]: inhibits | time of highest expression level of p21 after treatment (p21; 50 μg of scoparone): 24 h | expression of p21 (p21; [6]): time-dependently increased | time of highest phosphorylation of Erk after treatment (Erk): 45 min | formation of neointima [3]: decreased compared to that in the negative control group | phosphorylation of AMPK (AMPK): time-dependently increased | expression level of cyclin D (cyclin D): decreased | phosphorylation of JNK (JNK): gradually increased with the passage of time | expression of VCAM-1 (VCAM-1): dose-dependently decreased | phosphorylation of ACC (ACC): time-dependently increased | expression of ROS (ROS): decreased | time of highest expression level of p53 after treatment (p53; 50 μg of scoparone): 2 to 4 h | expression of p53 (p53; [6]): time-dependently increased | DNA binding activity of NF-κB (NF-κB): concentration-dependently decreased | time of highest expression level of p27 after treatment (p27; 50 μg of scoparone): 24 h | expression of p27 (p27; [6]): time-dependently increased | proliferation of the vascular smooth muscle cells ([4]; with 10 ng/ml TNF-α): decreased in a dose-dependent manner | proliferation of the vascular smooth muscle cells ([4]; with 20 ng/ml PDGF): decreased in a dose-dependent manner

c1cc(-c2cnn3cc(-c4ccc(OCCN5CCCCC5)cc4)cnc23)ccn1 [CompC]
proliferation of the vascular smooth muscle cells [5]: restored again
